The source of these data is patent US5942534A, “Photodynamic therapy for the treatment of osteoarthritis” (The General Hospital Corporation, priority 1997, dated 1999).

In the experiment the test system is MMP9. The experiment can be described thus: Gelatin zymography, MMP9 after PDT. In kind it is cell-based, calf. Particulars: at PDT parameter levels non-toxic to chondrocytes. Here is the method: Chondrocytes were harvested by established collagenase digestion techniques. Articular cartilage was aseptically dissected from the femoral condyles and patellas of calf knee joints. Condyle surface shavings were finely minced and digested overnight at 37° C. with collagenase 1 mg/ml (Type II; 355 U/mg dry weight (dw)) and hyaluronidase 0.1 mg/ml (1060 USP/NF units/mg dw) (Worthington Biochemicals, Inc., Freehold, N.J.) in Dulbecco's Modified Eagle's Medium (DMEM; Mediatech, Herndon, Va.) supplemented with 20 mM HEPES, 100 U/ml penicillin G, 100 μg/ml ascorbic acid (serum free TCM). The resulting cell suspensions were filtered through a cell sieve and washed twice with serum free TCM. The cells were resuspended in the same medium containing 5% heat inactivated fetal calf serum (BioWhittaker, Walkerville, Md.) (FCS-TCM) for seeding. Cell number was determined using a hemocytometer. Cell viability, which was determined by trypan blue exclusion, was greater than 99% for all preparations. Cells were plated at a density of 1.5×10^6 cells/ml into Falcon 96 well cell culture plates (Becton Dickinson Labware, Franklin Lakes, N.J.) for the cytotoxicity and cell proliferation experiments and into Falcon 6 well cell culture plates for the Photosensitizer uptake studies. […]

`C=Cc1c(C)c2cc3nc(c(CC(=O)O)c4[nH]c(cc5nc(cc1[nH]2)C(C)=C5CC)c(C)c4C(=O)O)[C@@H](CCC(=O)O)[C@@H]3C` [Ce6, Chlorin e6]: the “MMP9 production (in words)” value was “reduced at PDT parameter levels non-toxic to chondrocytes”.
